The record followed here is ChEMBL document CHEMBL1150338, “Prediction and identification of drug interactions with the human ATP-binding cassette transporter multidrug-resistance associated protein 2 (MRP2; ABCC2)” (J Med Chem, 2008).

In series [1] the target is ATP-binding cassette sub-family C member 2 (Homo sapiens, UniProt Q92887). Put plainly: Inhibition of human MRP2-mediated estradiol-17-beta-glucuronide transport in Sf9 cells inverted membrane vesicles.
The next series has as its target MRP2 (ABCC2) (Homo sapiens, UniProt Q92887). Put plainly: in vitro.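 Note: Inside-out membrane vesicles from Sf9 insect cells expressing human MRP2, measuring uptake of the estradiol glucuronide substrate, expressed as percent of untreated control.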
The mark [2] stands for this setting: probe estradiol-17-beta-glucuronide.

MRP2 (ABCC2), sequence (Q92887 whole entry): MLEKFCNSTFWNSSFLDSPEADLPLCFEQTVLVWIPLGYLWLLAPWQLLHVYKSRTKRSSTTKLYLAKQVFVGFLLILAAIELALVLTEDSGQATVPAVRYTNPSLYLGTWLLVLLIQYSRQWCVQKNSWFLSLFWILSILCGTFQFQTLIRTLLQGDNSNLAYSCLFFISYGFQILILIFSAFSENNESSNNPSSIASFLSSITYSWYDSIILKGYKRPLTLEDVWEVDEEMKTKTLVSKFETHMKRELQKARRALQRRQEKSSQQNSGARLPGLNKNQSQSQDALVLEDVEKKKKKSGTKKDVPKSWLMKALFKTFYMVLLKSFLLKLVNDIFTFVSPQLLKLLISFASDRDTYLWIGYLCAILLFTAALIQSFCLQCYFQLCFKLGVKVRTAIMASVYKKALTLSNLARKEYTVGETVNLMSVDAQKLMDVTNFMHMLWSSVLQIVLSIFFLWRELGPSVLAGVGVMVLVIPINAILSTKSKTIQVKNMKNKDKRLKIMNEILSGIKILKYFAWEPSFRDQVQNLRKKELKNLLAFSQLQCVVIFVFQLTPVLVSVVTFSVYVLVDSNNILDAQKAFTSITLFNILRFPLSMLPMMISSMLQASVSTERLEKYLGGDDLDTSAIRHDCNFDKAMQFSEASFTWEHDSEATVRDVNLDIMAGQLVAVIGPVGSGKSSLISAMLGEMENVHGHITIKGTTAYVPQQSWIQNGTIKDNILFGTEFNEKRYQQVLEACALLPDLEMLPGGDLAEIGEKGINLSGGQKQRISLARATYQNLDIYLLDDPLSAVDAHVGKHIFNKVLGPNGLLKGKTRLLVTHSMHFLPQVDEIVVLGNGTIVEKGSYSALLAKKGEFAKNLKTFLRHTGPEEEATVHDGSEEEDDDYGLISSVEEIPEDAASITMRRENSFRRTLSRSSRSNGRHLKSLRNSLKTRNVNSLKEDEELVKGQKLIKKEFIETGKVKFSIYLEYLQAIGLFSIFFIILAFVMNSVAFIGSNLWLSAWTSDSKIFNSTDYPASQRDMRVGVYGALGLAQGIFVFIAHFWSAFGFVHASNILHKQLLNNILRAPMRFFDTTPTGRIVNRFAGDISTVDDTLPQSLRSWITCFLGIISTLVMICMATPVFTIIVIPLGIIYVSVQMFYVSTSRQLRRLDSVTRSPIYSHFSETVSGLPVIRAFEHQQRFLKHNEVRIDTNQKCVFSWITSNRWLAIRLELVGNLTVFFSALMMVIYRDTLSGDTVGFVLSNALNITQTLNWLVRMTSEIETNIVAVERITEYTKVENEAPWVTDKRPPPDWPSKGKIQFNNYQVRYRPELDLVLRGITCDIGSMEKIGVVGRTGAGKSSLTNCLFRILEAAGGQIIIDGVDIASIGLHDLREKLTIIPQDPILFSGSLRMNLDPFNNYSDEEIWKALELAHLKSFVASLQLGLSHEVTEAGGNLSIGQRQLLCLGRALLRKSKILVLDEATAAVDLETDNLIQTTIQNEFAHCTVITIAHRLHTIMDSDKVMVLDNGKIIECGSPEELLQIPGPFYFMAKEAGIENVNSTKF
ATP-binding cassette sub-family C member 2, sequence (Q92887 whole entry): as above
Description for MRP2 (ABCC2): Effect on human MRP2-mediated estradiol-17-beta-glucuronide transport in Sf9 cells inverted membrane vesicles relative to control

The term IC50 denotes the concentration that inhibits the measured activity by half. Read a high IC50 as lower potency. Molecule `CN(C)C(=O)CCSC(SCCC(=O)O)c1cccc(/C=C/c2ccc3ccc(Cl)cc3n2)c1` (stereo not given) [MK-571] came in with an IC50 in series [1] of 10 µM. Also, the activity at MRP2 (ABCC2) (sf9) worked out at 9%. Regarding `COC(=O)[C@H]1[C@H]2C[C@@H]3c4[nH]c5cc(OC)ccc5c4CCN3C[C@H]2C[C@@H](OC(=O)c2cc(OC)c(OC)c(OC)c2)[C@@H]1OC` [RESERPINE], on MRP2 (ABCC2) (sf9), the activity turned out to be 37%.

`Oc1ccc(/C=C/c2cc(O)cc(O)c2)cc1` [RESVERATROL]: the activity on MRP2 (ABCC2) (setting [2]) was found to be 75%. With `CO[C@H]1/C=C/O[C@@]2(C)Oc3c(C)c(O)c4c(O)c(c(/C=N/N5CCN(C)CC5)c(O)c4c3C2=O)NC(=O)/C(C)=C\C=C\[C@H](C)[C@H](O)[C@@H](C)[C@@H](O)[C@@H](C)[C@H](OC(C)=O)[C@@H]1C` [RIFAMPIN], the activity at MRP2 (ABCC2) (setting [2]) came to 18%. Turning to `Cc1nc2sccn2c(=O)c1CCN1CCC(=C(c2ccc(F)cc2)c2ccc(F)cc2)CC1` [RITANSERIN], on MRP2 (ABCC2) (setting [2]), the activity came to 86%. Still for that read-out and setting: the figure for `C[C@@H](NCCc1ccc(O)cc1)[C@@H](O)c1ccc(O)cc1` [RITODRINE] is 113%; for `C=C(C)[C@H]1Cc2c(ccc3c2O[C@@H]2COc4cc(OC)c(OC)cc4[C@@H]2C3=O)O1` [ROTENONE] it is 92%; for `C[n+]1cc2c3c(ccc2c2ccc4cc5c(cc4c21)OCO5)OCO3` [SANGUINARIUM CHLORIDE] it is 44%. In the case of `CC(C)[C@@H]1NC(=O)[C@H](CCCCN)NC(=O)[C@@H](Cc2c[nH]c3ccccc23)NC(=O)[C@H](Cc2ccc(O)cc2)NC(=O)[C@H](C)N(C)C(=O)[C@H](Cc2ccccc2)NC1=O` [SEGLITIDE], the activity on MRP2 (ABCC2) (setting [2]) turned out to be 94%.

For the molecule `CCC(C)(C)C(=O)O[C@H]1C[C@@H](C)C=C2C=C[C@H](C)[C@H](CC[C@@H]3C[C@@H](O)CC(=O)O3)[C@H]21` [SIMVASTATIN], the activity at MRP2 (ABCC2) (setting [2]) stood at 61%.

As for `CC(C)NCC(O)c1ccc(NS(C)(=O)=O)cc1` (stereo not given) [SOTALOL], on MRP2 (ABCC2) (sf9), the activity was found to be 96%. For the molecule `C[C@@H]1CN(c2c(F)c(N)c3c(=O)c(C(=O)O)cn(C4CC4)c3c2F)C[C@H](C)N1` [SPARFLOXACIN], the activity on MRP2 (ABCC2) (setting [2]) was determined as 138%. `CC(=O)S[C@@H]1CC2=CC(=O)CC[C@]2(C)[C@H]2CC[C@@]3(C)[C@@H](CC[C@@]34CCC(=O)O4)[C@H]12` [SPIRONOLACTONE]: on MRP2 (ABCC2) (setting [2]), the activity is 125%.

Consider `O=C(O)c1cc(/N=N/c2ccc(S(=O)(=O)Nc3ccccn3)cc2)ccc1O` [SULFASALAZINE], for which the activity on MRP2 (ABCC2) (setting [2]) was determined as 77%. With `O=C1C(CC[S+]([O-])c2ccccc2)C(=O)N(c2ccccc2)N1c1ccccc1` (stereo not given) [SULFINPYRAZONE], the activity on MRP2 (ABCC2) (setting [2]) was 150%.

On to `O=C1OC(c2ccc(O)c(S(=O)(=O)O)c2)(c2ccc(O)c(S(=O)(=O)O)c2)c2c(Br)c(Br)c(Br)c(Br)c21` [SULFOBROMOPHTHALEIN SODIUM], for which, at MRP2 (ABCC2) (setting [2]), the activity came to 5%. On the same count and under the same terms, then `CC/C(=C(\c1ccccc1)c1ccc(OCCN(C)C)cc1)c1ccccc1` [TAMOXIFEN], with 8%; and `C[C@H](CCC(=O)NCCS(=O)(=O)O)[C@H]1CC[C@H]2[C@@H]3CC[C@@H]4C[C@H](O)CC[C@]4(C)[C@H]3CC[C@]12C` [TAUROLITHOCHOLIC ACID], with 27%. For the molecule `COc1cc2nc(N3CCN(C(=O)C4CCCO4)CC3)nc(N)c2cc1OC` (stereo not given) [TERAZOSIN], the activity at MRP2 (ABCC2) (sf9) is 94%. Same read-out and setting: then `CC(C)(C)c1ccc(C(O)CCCN2CCC(C(O)(c3ccccc3)c3ccccc3)CC2)cc1` (stereo not given) [TERFENADINE], with 3%.

In the case of `C[C@]12CC[C@H]3[C@@H](CCC4=CC(=O)CC[C@@]43C)[C@@H]1CC[C@@H]2O` [TESTOSTERONE], the activity on MRP2 (ABCC2) (setting [2]) was 140%. In the case of `CN(C)[C@@H]1C(O)=C(C(N)=O)C(=O)[C@@]2(O)C(O)=C3C(=O)c4c(O)cccc4[C@@](C)(O)[C@H]3C[C@@H]12` [TETRACYCLINE], the activity at MRP2 (ABCC2) (sf9) is 110%. Regarding `CSc1ccc2c(c1)N(CCC1CCCCN1C)c1ccccc1S2` (stereo not given) [THIORIDAZINE], the activity on MRP2 (ABCC2) (setting [2]) is -1%. For `CC(C)(C)NC[C@H](O)COc1nsnc1N1CCOCC1` [TIMOLOL], at MRP2 (ABCC2) (sf9), the activity worked out at 91%.

For the molecule `CCS(=O)(=O)CCn1c([N+](=O)[O-])cnc1C` [TINIDAZOLE], the activity at MRP2 (ABCC2) (setting [2]) amounted to 55%.

With `COc1cccc([C@@]2(O)CCCC[C@@H]2CN(C)C)c1` [TRAMADOL], on MRP2 (ABCC2) (setting [2]), the activity came out at 89%. For `COc1cc(Cc2cnc(N)nc2N)cc(OC)c1OC` [TRIMETHOPRIM], the activity on MRP2 (ABCC2) (sf9) came to 107%. On to `N[C@@H](Cc1c[nH]c2ccccc12)C(=O)O` [TRYPTOPHAN], for which the activity on MRP2 (ABCC2) (setting [2]) amounted to 66%.

As to `CC(C)[C@H](N)C(=O)OCCOCn1cnc2c(=O)[nH]c(N)nc21` [VALACYCLOVIR], the activity at MRP2 (ABCC2) (setting [2]) amounted to 94%. As for `CCCC(CCC)C(=O)O` [VALPROIC ACID], the activity on MRP2 (ABCC2) (setting [2]) is 94%.

For `CC[C@]1(O)C[C@@H]2CN(CCc3c([nH]c4ccccc34)[C@@](C(=O)OC)(c3cc4c(cc3OC)N(C)[C@H]3[C@@](O)(C(=O)OC)[C@H](OC(C)=O)[C@]5(CC)C=CCN6CC[C@]43[C@@H]65)C2)C1` [VINBLASTINE], at MRP2 (ABCC2) (setting [2]), the activity was 78%. Same read-out and setting: the figure for `CC[C@]1(O)C[C@H]2CN(CCc3c([nH]c4ccccc34)[C@@](C(=O)OC)(c3cc4c(cc3OC)N(C=O)[C@H]3[C@@](O)(C(=O)OC)[C@H](OC(C)=O)[C@]5(CC)C=CCN6CC[C@]43[C@@H]65)C2)C1` [VINCRISTINE] is 82%; for `CC(=O)CC(c1ccccc1)c1c(O)c2ccccc2oc1=O` (stereo not given) [WARFARIN] it is 136%. Take `Cc1cn([C@H]2C[C@H](N=[N+]=[N-])[C@@H](CO)O2)c(=O)[nH]c1=O` [ZIDOVUDINE]: the activity at MRP2 (ABCC2) (setting [2]) was 103%.
